Laboratory results from paper PMC5899833, “Population pharmacokinetics/pharmacodynamics of micafungin against Candida species in obese, critically ill, and morbidly obese critically ill patients” (Critical Care, 2018).
Where two headings read alike, the source gives them in different places. Starred links: 1 amine or outer side, 2 acyl side, 3 side chain; linkers in the order of their positions; H or OH if unused. Positions of bridges follow the written chain, without caps; N, C: chain ends. Non-standard residues stand in square brackets, D forms with d. Residues, ends and D or L forms follow the SMILES beside them. *: point of attachment. hTyr(3S-OH,4S-OH,3'-OSO3H) = N[C@H](C(=O)O)[C@H](O)[C@@H](O)c1ccc(O)c(OS(=O)(=O)O)c1; Orn(4R-OH,5R-OH) = O=C([C@H](C[C@@H](O)[C@@H](O)N[*:3])N[*:1])[*:2]; Pro(3S-OH,4S-Me) = C[C@H]1CN[C@H](C(=O)O)[C@H]1O; X1 = CCCCCOc1ccc(-c2cc(-c3ccc(C(=O)*)cc3)no2)cc1; Gln(3R-OH) = NC(=O)C[C@@H](O)[C@H](N)C(=O)O; Hyp = O=C(O)[C@@H]1C[C@@H](O)CN1

Assay: Population pharmacokinetic model of total plasma micafungin in patients
Format: in vivo, human
Details: 31 patients; for clearance: human
Description: A pharmacokinetic study was carried out in patients under micafungin empirical or directed treatment for invasive candidiasis. The population consisted of 11 morbidly obese critically ill adult patients (from the Hospital Universitario La Paz, Madrid, Spain), 10 nonobese critically ill patients, and 10 obese noncritically ill patients (from the Hospital del Mar, Barcelona, Spain). Patients admitted to ICUs were those considered to be critically ill. The study protocol was approved by the Ethics Committee of the Hospital La Paz (Madrid, Spain) and the Hospital del Mar (Barcelona, Spain). Written informed consent was obtained from patients (or relatives if the patient was unable to provide due to their critical situation) before blood sampling.
Demographic and clinical data prior to initiation of antifungal treatment were collected. Severity (Simplified Acute Physiology Score (SAPS) II), Sequential Organ Failure Assessment (SOFA) score, and risk for invasive candidiasis (Candida score) (except for patients with microbiologically documented infections) were calculated. Patients received dosage regimens of once-daily 100 mg or 150 mg micafungin (Astellas Pharma S.A., Spain) diluted in 100 ml isotonic saline solution that was intravenously infused over 60 min at the discretion of the treating physician (following the prescribing information and hospital treatment guidelines). On day 3, blood samples were collected at baseline (predose) and after 1, 3, 5, 8, 18, and 24 h. Additional blood samples at day 0 and day 7 were collected when feasible.
Total micafungin concentrations in plasma were measured by a validated ultra-high-performance liquid chromatography (UHPLC)-tandem mass spectrometry (MS/MS) method, from 0.2 to 30 μg/ml, on a Shimadzu Nexera 2 UHPLC system coupled to a Shimadzu 8030+ triple quadruple mass spectrometer (Shimadzu, Kyoto, Japan). Clinical samples were assayed alongside plasma calibrators and quality controls and met batch acceptance criteria.
To describe total micafungin concentrations, one- and two-compartment models were developed with the nonparametric adaptive grid algorithm within the freely available Pmetrics software package for R (Los Angeles, CA, USA). Elimination from the central compartment, and intercompartmental distribution into the peripheral compartment (two-compartment model), were modeled as first-order processes. The discrimination between different models resulted from the comparison of the −2 log-likelihood (−2LL). A p value of < 0.05 was considered statistically significant.
Age, gender, body weight, body mass index (BMI), Acute Physiology and Chronic Health Evaluation (APACHE) II, serum creatinine concentration, measured creatinine clearance, Cockroft-Gault estimated creatinine clearance, and serum albumin concentration were evaluated as covariates. Covariate selection was performed using a stepwise linear regression from R on all covariates and Bayesian posterior parameters. Potential covariates were separately entered into the model and statistically tested by use of the –2LL values.
Goodness-of-fit was assessed by linear regression, with an observed-predicted plot, coefficients of determination, and LL values. Predictive performance evaluation was based on mean error of prediction (bias) and mean bias-adjusted squared error of prediction (imprecision) of the population and individual prediction models. The internal validity of the population pharmacokinetic model was assessed by the bootstrap resampling method (n = 1000) and normalized prediction distribution errors (NPDE). Using a visual predictive check method, parameters obtained from the bootstrap method were plotted with the observed concentrations. NPDE plots were checked for normal distribution characteristics and trends in data errors. […]

[1] = final two-compartment covariate population PK model, 100 or 150 mg once daily iv
[2] = final two-compartment covariate population PK model, 100 or 150 mg once daily iv, SD

## CCCCCOc1ccc(-c2cc(-c3ccc(C(=O)N[C@H]4C[C@@H](O)[C@@H](O)NC(=O)[C@@H]5[C@@H](O)[C@@H](C)CN5C(=O)[C@H]([C@H](O)CC(N)=O)NC(=O)[C@H]([C@H](O)[C@@H](O)c5ccc(O)c(OS(=O)(=O)O)c5)NC(=O)[C@@H]5C[C@@H](O)CN5C(=O)[C@H]([C@@H](C)O)NC4=O)cc3)no2)cc1 [micafungin] (X1-[Orn(4R-OH,5R-OH)]T[Hyp][hTyr(3S-OH,4S-OH,3'-OSO3H)][Gln(3R-OH)][Pro(3S-OH,4S-Me)]; lactam 1-C)
[1]
  Central volume, median: 16.34 L
  kcp, median: 0.26 h⁻¹
  kpc, median: 0.14 h⁻¹
[2]
  Central volume, mean ± SD: 16.34 ± 5.87 L
  kcp (rate constant central to peripheral compartment), mean ± SD: 0.38 ± 0.37 h⁻¹
  kpc (rate constant peripheral to central compartment), mean ± SD: 0.32 ± 0.31 h⁻¹
plasma, iv, final two-compartment covariate population PK model, 100 or 150 mg once daily iv, read-out: Clearance, median (converted)
  clearance: 12.2 mL/min
Final two-compartment covariate population PK model (weight, age on CL), 100 or 150 mg once daily iv over 60 min, 242 total plasma concentrations, UHPLC-MS/MS, SD, read-out: Clearance, mean ± SD (converted)
  clearance: 13.3 mL/min
